The structures appear in SMILES notation.

Experimental findings from ChEMBL document CHEMBL5244271, “Targeted Drugs for Treatment of Pulmonary Arterial Hypertension: Past, Present, and Future Perspectives” (J Med Chem, 2020) are described below.

The nature of data set [1]: Activation of rabbit sGC assessed as induction of preconstricted aortic ring relaxation. Conditions: Oryctolagus cuniculus.
Data set [2] in a line: Half life in human. Format: ADME.
The nature of data set [3]: Tmax in human. Format: ADME.
For data set [4], the target named is T1, Endothelin receptor type B (Homo sapiens, UniProt P24530).
T1 sequence (P24530 whole entry): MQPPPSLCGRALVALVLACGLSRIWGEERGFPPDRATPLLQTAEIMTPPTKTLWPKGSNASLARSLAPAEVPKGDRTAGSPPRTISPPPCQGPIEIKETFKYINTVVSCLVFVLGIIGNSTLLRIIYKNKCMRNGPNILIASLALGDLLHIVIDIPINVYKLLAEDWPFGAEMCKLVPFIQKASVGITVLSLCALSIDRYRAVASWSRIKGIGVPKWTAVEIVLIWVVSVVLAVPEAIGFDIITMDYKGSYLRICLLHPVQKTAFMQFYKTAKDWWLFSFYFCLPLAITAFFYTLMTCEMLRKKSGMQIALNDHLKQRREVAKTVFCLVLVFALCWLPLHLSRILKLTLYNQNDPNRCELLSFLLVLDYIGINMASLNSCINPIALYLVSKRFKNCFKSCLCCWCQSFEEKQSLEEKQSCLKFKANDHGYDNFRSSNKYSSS
The data set can be described thus: Binding affinity to human placenta ETB. Format: tissue-based.

Data set [5] has as its target T2, Endothelin-1 receptor (Homo sapiens, UniProt P25101).
T2 sequence (P25101 whole entry): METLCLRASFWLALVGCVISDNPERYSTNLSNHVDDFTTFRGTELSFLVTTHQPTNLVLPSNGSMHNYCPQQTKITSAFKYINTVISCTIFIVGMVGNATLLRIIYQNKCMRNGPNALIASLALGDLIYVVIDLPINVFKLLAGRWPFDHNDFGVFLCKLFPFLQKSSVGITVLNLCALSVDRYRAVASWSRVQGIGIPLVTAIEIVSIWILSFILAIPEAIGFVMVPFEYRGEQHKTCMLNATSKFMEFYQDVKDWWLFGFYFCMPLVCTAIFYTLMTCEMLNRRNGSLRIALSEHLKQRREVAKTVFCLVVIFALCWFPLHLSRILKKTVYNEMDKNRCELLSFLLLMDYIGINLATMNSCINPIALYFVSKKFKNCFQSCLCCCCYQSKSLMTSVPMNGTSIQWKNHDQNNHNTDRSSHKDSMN
The data set can be described thus: Binding affinity to recombinant human ETA.

The nature of data set [6]: Tmax in po dosed human. As to conditions: in vivo. Format: ADME, organism-based.
A short description of data set [7]: Half life in po dosed human. Conditions: in vivo. Format: ADME, organism-based.

The term IC50 denotes the point on the concentration scale where inhibition reaches its midpoint. Turning to `OCc1ccc(-c2nn(Cc3ccccc3)c3ccccc23)o1`, in data set [1], the IC50 is 10 µM. Turning to `Nc1ccnc(-c2nn(Cc3ccccc3F)c3ncccc23)n1`, the IC50 in data set [1] stood at 0.27 µM.

On to `OCc1ccc(-c2nn(Cc3ccccc3F)c3ncccc23)o1`, for which the concentration for half-maximal inhibition (IC50) in data set [1] turned out to be 1.7 µM.

Regarding `Nc1nc(-c2nn(Cc3ccccc3F)c3ncccc23)nc(N)c1N1CCOCC1`, the IC50 in data set [1] turned out to be 0.1 µM. As usually defined, the half-life is how long it takes for the measured level to halve. A higher half-life goes with slow decline. As a reminder, the Tmax is the time at which the peak concentration occurs. In data set [2], `NC(=O)[C@](O)(CNc1nc(-c2cc(-c3ccon3)n(Cc3ccccc3F)n2)ncc1F)C(F)(F)F` [OLINCIGUAT] had a half-life of 30 h. The Tmax in data set [3] is 2 h. In the case of `O=S(=O)(Nc1ncnc(OCCO)c1-c1ccccc1)c1ccc(C(F)(F)F)cc1`, the IC50 was determined as 2 µM in data set [4] and 18 µM in data set [5]. The molecule `O=C(O)COC[C@H]1CC[C@H](COC(=O)N(c2ccccc2)c2ccc(Cl)cc2)CC1` gave a half-life in data set [2] of 24 h. Molecule `OC(CNc1nc(-c2cc(-c3ccon3)n(Cc3ccccc3F)n2)ncc1F)(C(F)(F)F)C(F)(F)F` had a half-life in data set [2] of 24 h. Still for that read-out and setting: in the case of `CN1CC(=O)N2[C@H](c3ccc4c(c3)OCO4)c3[nH]c4ccccc4c3C[C@@H]2C1=O` it was 17.5 h. For `OCc1ccc(-c2nn(Cc3ccccc3F)c3ccccc23)o1`, the IC50 in data set [1] amounted to 4.9 µM. Take `COC(=O)N(C)c1c(N)nc(-c2nn(Cc3ccccc3F)c3ncccc23)nc1N` [RIOCIGUAT]: the time of peak concentration (Tmax) in data set [6] stood at 0.5 h. Besides, the half-life in data set [7] was 5 h. The half-inhibitory concentration (IC50) in data set [1] was determined as 0.12 µM. On to `Nc1nc(-c2nn(Cc3ccccc3F)c3ncccc23)ncc1C1CC1`, for which the concentration for half-maximal inhibition (IC50) in data set [1] came to 0.304 µM. In data set [2], `CCCOc1ccc(S(=O)(=O)NCCC2CCCN2C)cc1-c1nc2c(CCC)nn(C)c2c(=O)[nH]1` (stereo not drawn) showed a half-life of 12.3 h. In addition, in data set [3], the time to peak (Tmax) was determined as 0.8 h.
